Source: the CheMixHub viscosity set

Assay: xn = mol fraction of the nth substance listed

Oc1ccccc1Cl + CCNc1ccccc1
viscosity [mPa·s], 101 kPa
Settings | x1 = 0.1027 | x1 = 0.2022 | x1 = 0.3028 | x1 = 0.4011 | x1 = 0.5014 | x1 = 0.6004 | x1 = 0.7024 | x1 = 0.7991 | x1 = 0.8994
298 K | 2.403 | 2.916 | 3.666 | 4.186 | 4.763 | 5.01 | 5.008 | 4.647 | 4.064
303 K | 2.117 | 2.487 | 3.051 | 3.372 | 3.807 | 4.028 | 3.972 | 3.751 | 3.335
308 K | 1.852 | 2.161 | 2.557 | 2.828 | 3.16 | 3.314 | 3.299 | 3.134 | 2.844
313 K | 1.673 | 1.885 | 2.206 | 2.407 | 2.662 | 2.771 | 2.782 | 2.67 | 2.452
318 K | 1.491 | 1.67 | 1.925 | 2.166 | 2.287 | 2.372 | 2.392 | 2.317 | 2.137

C=COC(C)=O + Cc1ccc(C)cc1
viscosity [mPa·s], 101 kPa
Settings | x1 = 0.1501 | x1 = 0.2469 | x1 = 0.3618 | x1 = 0.4592 | x1 = 0.5631 | x1 = 0.67 | x1 = 0.7587 | x1 = 0.8601 | x1 = 0.9478
303.15 K | 0.537 | 0.518 | 0.497 | 0.48 | 0.462 | 0.445 | 0.435 | 0.42 | 0.403
313.15 K | 0.486 | 0.467 | 0.445 | 0.428 | 0.41 | 0.393 | – | – | 0.353

CCCN + CCCO
Settings | viscosity [mPa·s]
298.15 K, 100 kPa, x2 = 0.0523 | 0.3938
298.15 K, 100 kPa, x2 = 0.1008 | 0.4276
298.15 K, 100 kPa, x2 = 0.2001 | 0.5072
298.15 K, 100 kPa, x2 = 0.2985 | 0.6113
298.15 K, 100 kPa, x2 = 0.3979 | 0.7332
298.15 K, 100 kPa, x2 = 0.5037 | 0.864
298.15 K, 100 kPa, x2 = 0.5989 | 1.002
298.15 K, 100 kPa, x2 = 0.7015 | 1.186
298.15 K, 100 kPa, x2 = 0.7962 | 1.378
298.15 K, 100 kPa, x2 = 0.9032 | 1.671
298.15 K, 100 kPa, x2 = 0.9626 | 1.843
303.15 K, 101.33 kPa, x1 = 0.0903 | 1.559
303.15 K, 101.33 kPa, x1 = 0.1862 | 1.343
303.15 K, 101.33 kPa, x1 = 0.2822 | 1.157
303.15 K, 101.33 kPa, x1 = 0.3807 | 0.9888
303.15 K, 101.33 kPa, x1 = 0.4868 | 0.8381
303.15 K, 101.33 kPa, x1 = 0.5804 | 0.7151
303.15 K, 101.33 kPa, x1 = 0.6878 | 0.596
303.15 K, 101.33 kPa, x1 = 0.7825 | 0.5123
303.15 K, 101.33 kPa, x1 = 0.901 | 0.417
313.15 K, 101.33 kPa, x1 = 0.0903 | 1.255
313.15 K, 101.33 kPa, x1 = 0.1862 | 1.096
313.15 K, 101.33 kPa, x1 = 0.2822 | 0.9516
313.15 K, 101.33 kPa, x1 = 0.3807 | 0.8187
313.15 K, 101.33 kPa, x1 = 0.4868 | 0.6961
313.15 K, 101.33 kPa, x1 = 0.5804 | 0.6034
313.15 K, 101.33 kPa, x1 = 0.6878 | 0.5101
313.15 K, 101.33 kPa, x1 = 0.7825 | 0.4401
313.15 K, 101.33 kPa, x1 = 0.901 | 0.3655

CCCN + CCCCCCCO
viscosity [mPa·s], 101.33 kPa
Settings | x1 = 0.0918 | x1 = 0.1876 | x1 = 0.2917 | x1 = 0.3927 | x1 = 0.4818 | x1 = 0.6142 | x1 = 0.7167 | x1 = 0.7997 | x1 = 0.9056
303.15 K | 4.047 | 3.35 | 2.669 | 2.114 | 1.687 | 1.177 | 0.8748 | 0.678 | 0.4813
313.15 K | 3.046 | 2.522 | 2.023 | 1.593 | 1.28 | 0.9105 | 0.6933 | 0.5549 | 0.4105

N#CCCl + ClC(Cl)(Cl)Cl
viscosity [mPa·s], 101 kPa
Settings | 293.15 K | 298.15 K | 303.15 K | 313.15 K | 323.15 K
x1 = 0.014 | 0.983 | 0.907 | 0.844 | 0.749 | 0.672
x1 = 0.087 | 0.939 | 0.867 | 0.803 | 0.71 | 0.633
x1 = 0.222 | 0.914 | 0.841 | 0.78 | 0.688 | 0.615

OCCc1ccccc1 + Cc1ccccc1N
viscosity [mPa·s], 100 kPa
Settings | x2 = 0.0857 | x2 = 0.1652 | x2 = 0.2724 | x2 = 0.3731 | x2 = 0.4711 | x2 = 0.6147 | x2 = 0.7123 | x2 = 0.8105 | x2 = 0.8904
303.15 K | 8.539 | 8.086 | 7.473 | 6.895 | 6.332 | 5.503 | 4.937 | 4.366 | 3.9
308.15 K | 7.247 | 6.868 | 6.356 | 5.874 | 5.402 | 4.708 | 4.234 | 3.755 | 3.364
313.15 K | 6.014 | 5.714 | 5.307 | 4.923 | 4.548 | 3.994 | 3.616 | 3.234 | 2.921
318.15 K | 4.751 | 4.532 | 4.234 | 3.952 | 3.676 | 3.269 | 2.991 | 2.708 | 2.476

C=COC(C)=O + CCCCCCCCCCO
303.15 K, 101.33 kPa
Settings | viscosity [mPa·s]
x1 = 0.1013 | 6.774
x1 = 0.1998 | 4.804
x1 = 0.3007 | 3.437
x1 = 0.3991 | 2.488
x1 = 0.5006 | 1.793
x1 = 0.6004 | 1.31
x1 = 0.6957 | 0.952
x1 = 0.8003 | 0.682
x1 = 0.904 | 0.489

CCCOC(=O)c1ccccc1 + CCCCCCC
viscosity [mPa·s], 101 kPa
Settings | x1 = 0.099 | x1 = 0.1965 | x1 = 0.2952 | x1 = 0.395 | x1 = 0.4959 | x1 = 0.5924 | x1 = 0.6991 | x1 = 0.7981 | x1 = 0.8973
298.15 K | 0.444 | 0.516 | 0.603 | 0.707 | 0.842 | 1.017 | 1.254 | 1.526 | 1.853
308.15 K | 0.399 | 0.466 | 0.531 | 0.614 | 0.734 | 0.874 | 1.051 | 1.248 | 1.525
318.15 K | 0.358 | 0.408 | 0.472 | 0.55 | 0.638 | 0.754 | 0.897 | 1.064 | 1.266

CCCCOC(C)=O + COCCO
viscosity [mPa·s], 101 kPa
Settings | x2 = 0.0967 | x2 = 0.1995 | x2 = 0.2988 | x2 = 0.3986 | x2 = 0.4983 | x2 = 0.6028 | x2 = 0.697 | x2 = 0.7987 | x2 = 0.9012
298.15 K | 0.703 | 0.736 | 0.787 | 0.841 | 0.922 | 1.01 | 1.13 | 1.285 | 1.48
303.15 K | 0.656 | 0.686 | 0.731 | 0.78 | 0.849 | 0.928 | 1.034 | 1.17 | 1.34
308.15 K | 0.615 | 0.641 | 0.68 | 0.723 | 0.785 | 0.855 | 0.948 | 1.066 | 1.217
